From patent EP4714953A1, “MELANOCORTIN 2-TYPE RECEPTOR ANTAGONIST” (Scohia Pharma, Inc., priority 2023, dated 2024)
Where a name gives a salt, the structure may show the parent alone.

Molecular target: T1, human MC2R (Homo sapiens, UniProt Q01718)
T1 construct: host or cells: GeneBLAzer MC2R-CRE-bla CHO-K1 cells
Assay: Measurement of human MC2R inhibitory activity using intracellular cAMP concentration as an indicator
Type: cell-based
Conditions: test compound at 1 µM, GeneBLAzer MC2R-CRE-bla CHO-K1 cells, ACTH (Human 1-24) final concentration 3 pM, intracellular cAMP by HTRF; for inhibition at 1 µM: read-out: MC2R inhibition rate (% of inhibition)
Protocol: Experimental Example 1: Measurement of human MC2R inhibitory activity using intracellular cAMP concentration as an indicator
GeneBLAzer MC2R-CRE-bla CHO-K1 cells (Thermo Fisher Scientific) that had been cryopreserved in advance were thawed and suspended in a medium [Dulbecco's Modified Eagle Medium (Thermo Fisher Scientific) containing fetal bovine serum (10% (v/v), HyClone Laboratories), Non-Essential Amino Acids Solution (1/100 (w/w), Thermo Fisher Scientific), HEPES (25 mM, Thermo Fisher Scientific), Penicillin/Streptomycin (1/100 (w/w), Fujifilm Wako)]. After centrifuging the cell suspension, the supernatant was removed, the cells were suspended in D-PBS(-) (Fujifilm Wako), and the supernatant was removed again after centrifugation. The cells were resuspended in an assay buffer [Hank's Balanced Salt Solution (Thermo Fisher Scientific) containing HEPES pH 7.5 (10 mM, Thermo Fisher Scientific), fatty acid-free bovine serum albumin (0.01% (w/v), Sigma), IBMX (500 µM, Fujifilm Wako)] and added to a 384-well white plate (Greiner) at 1,500 cells/well. Then, the test compound prepared using the assay buffer was added, and after standing for 20 min, an assay buffer containing ACTH (Human 1-24) (Peptide Institute) was added (ACTH final concentration, 3 pM). After standing at room temperature for 30 min, the intracellular cAMP level was measured using cAMP Gs HiRange kit HTRF (PerkinElmer). The inhibition rate (%) of the compound against MC2R was calculated using the following formula. Inhibition rate (%) = […] [formula] • A: cAMP concentration calculated from wells containing 3 pM ACTH (1-24) • B: cAMP concentration calculated from wells without addition of 3 pM ACTH (1-24) • C: cAMP concentration calculated from wells containing 3 pM ACTH (1-24) and test compound at concentration determined in advance

T1 sequence (Q01718 whole entry): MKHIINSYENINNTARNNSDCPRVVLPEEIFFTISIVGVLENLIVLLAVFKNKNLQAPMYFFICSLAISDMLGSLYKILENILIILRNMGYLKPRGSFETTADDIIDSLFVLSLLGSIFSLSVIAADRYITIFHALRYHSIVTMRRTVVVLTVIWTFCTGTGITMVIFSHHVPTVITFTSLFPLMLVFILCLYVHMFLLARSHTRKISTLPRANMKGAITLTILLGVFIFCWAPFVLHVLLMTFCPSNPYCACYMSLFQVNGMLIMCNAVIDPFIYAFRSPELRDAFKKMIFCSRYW
T1 sequence (Q8TCY5 whole entry partner): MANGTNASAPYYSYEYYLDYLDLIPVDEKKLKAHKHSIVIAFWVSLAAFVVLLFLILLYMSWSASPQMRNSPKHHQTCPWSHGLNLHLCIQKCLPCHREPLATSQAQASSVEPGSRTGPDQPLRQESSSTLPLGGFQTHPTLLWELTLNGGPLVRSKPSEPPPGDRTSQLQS

| inhibition at 1 µM | Structure (SMILES) | MC2R inhibition rate (% of inhibition) |
| --- | --- | --- |
| 100% | CCOc1ncccc1-c1ccc(N2C[C@H]3CN(c4ccc(F)cc4C#N)C(=O)N3C[C@H]2CC)c(C(=O)N[C@H]2CNC(=O)C2)n1 [Example 55, 3-[(6R,8aS)-2-(2-cyano-4-fluorophenyl)-6-ethyl-3-oxo-5,6,8,8a-tetrahydro-1H-imidazo[1,5-a]pyrazin-7-yl]-6-(2-ethoxypyridin-3-yl)-N-[(3R)-5-oxopyrrolidin-3-yl]pyridine-2-carboxamide] |  |
| 100% | CCOc1ncccc1-c1ccc(N2C[C@H]3CN(c4ccc(Cl)cc4C(F)(F)F)C(=O)N3C[C@H]2CC)c(C(=O)N[C@H]2CC(=O)N(C)C2)n1 [Example 50, 3-[(6R,8aS)-2-[4-chloro-2-(trifluoromethyl)phenyl]-6-ethyl-3-oxo-5,6,8,8a-tetrahydro-1H-imidazo[1,5-a]pyrazin-7-yl]-6-(2-ethoxypyridin-3-yl)-N-[(3S)-1-methyl-5-oxopyrrolidin-3-yl]pyridine-2-carboxamide] |  |
| 100% | CCOc1ncccc1-c1ccc(N2C[C@H]3CN(c4ccc(Cl)cc4C(F)(F)F)C(=O)N3C[C@H]2CC)c(C(=O)NC2CNC(=O)C2)n1 (stereo partly drawn) [Example 29, 3-[(6R,8aS)-2-[4-chloro-2-(trifluoromethyl)phenyl]-6-ethyl-3-oxo-5,6,8,8a-tetrahydro-1H-imidazo[1,5-a]pyrazin-7-yl]-6-(2-ethoxypyridin-3-yl)-N-(5-oxopyrrolidin-3-yl)pyridine-2-carboxamide] |  |
| 100% | CCOc1ncccc1-c1ccc(N2C[C@H]3CN(c4ccc(C(F)(F)F)cc4C#N)C(=O)N3C[C@H]2CC)c(C(=O)N[C@H]2CNC(=O)C2)n1 [Example 56, 3-[(6R,8aS)-2-[2-cyano-4-(trifluoromethyl)phenyl]-6-ethyl-3-oxo-5,6,8,8a-tetrahydro-1H-imidazo[1,5-a]pyrazin-7-yl]-6-(2-ethoxypyridin-3-yl)-N-[(3R)-5-oxopyrrolidin-3-yl]pyridine-2-carboxamide] |  |
| 97% | CCOc1ncccc1-c1ccc(N2C[C@H]3CN(c4ccc(Cl)cc4C(F)(F)F)C(=O)N3C[C@H]2C)c(C(=O)N[C@@H]2CC(=O)N(C)C2)n1 [Example 60, 3-[(6R,8aS)-2-[4-chloro-2-(trifluoromethyl)phenyl]-6-methyl-3-oxo-5,6,8,8a-tetrahydro-1H-imidazo[1,5-a]pyrazin-7-yl]-6-(2-ethoxy-3-pyridinyl)-N-[(3R)-1-methyl-5-oxopyrrolidin-3-yl]pyridine-2-carboxamide] |  |
| 100% | CCOc1ncccc1-c1ccc(N2C[C@H]3CN(c4ccc(Cl)cc4C(F)(F)F)C(=O)N3C[C@H]2CC)c(C(=O)NCC2(O)CC2)n1 [Example 32, 3-[(6R,8aS)-2-[4-chloro-2-(trifluoromethyl)phenyl]-6-ethyl-3-oxo-5,6,8,8a-tetrahydro-1H-imidazo[1,5-a]pyrazin-7-yl]-6-(2-ethoxypyridin-3-yl)-N-[(1-hydroxycyclopropyl)methyl]pyridine-2-carboxamide] |  |
| 100% | CCOc1ncccc1-c1ccc(N2C[C@H]3CN(c4ccc(Cl)cc4C#N)C(=O)N3C[C@H]2CC)c(C(=O)N[C@H]2CNC(=O)C2)n1 [Example 53, 3-[(6R,8aS)-2-(4-chloro-2-cyanophenyl)-6-ethyl-3-oxo-5,6,8,8a-tetrahydro-1H-imidazo[1,5-a]pyrazin-7-yl]-6-(2-ethoxypyridin-3-yl)-N-[(3R)-5-oxopyrrolidin-3-yl]pyridine-2-carboxamide] |  |

More lines, now with the values behind:

| Structure (SMILES) | inhibition at 1 µM | MC2R inhibition rate (% of inhibition) |
| --- | --- | --- |
| CCOc1ncccc1-c1ccc(N2CCN3C(=O)N(c4ccc(Cl)cc4C(F)(F)F)CC3C2)c(C(N)=O)n1 (stereo not drawn) [Example 2, 3-[2-[4-chloro-2-(trifluoromethyl)phenyl]-3-oxo-5,6,8,8a-tetrahydro-1H-imidazo[1,5-a]pyrazin-7-yl]-6-(2-ethoxypyridin-3-yl)pyridine-2-carboxamide] | 99% |  |
| CCOc1ncccc1-c1ccc(N2C[C@H]3CN(c4ccc(Cl)cc4C(F)(F)F)C(=O)N3C[C@H]2CC)c(C(=O)N[C@@H](C)C(=O)NC)n1 [Example 41, 3-[(6R,8aS)-2-[4-chloro-2-(trifluoromethyl)phenyl]-6-ethyl-3-oxo-5,6,8,8a-tetrahydro-1H-imidazo[1,5-a]pyrazin-7-yl]-6-(2-ethoxypyridin-3-yl)-N-[(2S)-1-(methylamino)-1-oxopropan-2-yl]pyridine-2-carboxamide] | 100% |  |
| CCOc1ncccc1-c1ccc(N2CCN3C(=O)N(c4ccc(Cl)cc4C(F)(F)F)C[C@@H]3C2)c(C(=O)N[C@@H]2CCN(C)C2)n1 [Example 23, 3-[(8aS)-2-[4-chloro-2-(trifluoromethyl)phenyl]-3-oxo-5,6,8,8a-tetrahydro-1H-imidazo[1,5-a]pyrazin-7-yl]-6-(2-ethoxypyridin-3-yl)-N-[(3R)-1-methylpyrrolidin-3-yl]pyridine-2-carboxamide] | 100% |  |
| CCOc1ncccc1-c1ccc(N2C[C@H]3CN(c4ccc(F)cc4C#N)C(=O)N3C[C@H]2CC)c(C(=O)N[C@@H]2CC(=O)N(C)C2)n1 [Example 58, 3-[(6R,8aS)-2-(2-cyano-4-fluorophenyl)-6-ethyl-3-oxo-5,6,8,8a-tetrahydro-1H-imidazo[1,5-a]pyrazin-7-yl]-6-(2-ethoxypyridin-3-yl)-N-[(3R)-1-methyl-5-oxopyrrolidin-3-yl]pyridine-2-carboxamide] | 100% |  |
| CCOc1ncccc1-c1ccc(N2CCN3C(=O)N(c4ccc(Cl)cc4C(F)(F)F)C[C@@H]3C2)c(C(=O)NCCC2CCNCC2)n1 [Example 25, 3-[(8aS)-2-[4-chloro-2-(trifluoromethyl)phenyl]-3-oxo-5,6,8,8a-tetrahydro-1H-imidazo[1,5-a]pyrazin-7-yl]-6-(2-ethoxypyridin-3-yl)-N-(2-piperidin-4-ylethyl)pyridine-2-carboxamide 2 hydrochloride] |  | 99% |
| CCOc1ncccc1-c1ccc(N2C[C@H]3CN(C4(C(F)(F)F)CC4)C(=O)N3C[C@H]2CC)c(C(=O)N[C@@H]2CC(=O)N(C)C2)n1 [Example 59, 3-[(6R,8aS)-6-ethyl-3-oxo-2-[1-(trifluoromethyl)cyclopropyl]-5,6,8,8a-tetrahydro-1H-imidazo[1,5-a]pyrazin-7-yl]-6-(2-ethoxy-3-pyridinyl)-N-[(3R)-1-methyl-5-oxopyrrolidin-3-yl]pyridine-2-carboxamide] | 87% |  |
| CCOc1ncccc1-c1ccc(N2C[C@H]3CN(c4ccc(Cl)cc4C(F)(F)F)C(=O)N3C[C@H]2CC)c(C(=O)NCCN(C)C)n1 [Example 26, 3-[(6R,8aS)-2-[4-chloro-2-(trifluoromethyl)phenyl]-6-ethyl-3-oxo-5,6,8,8a-tetrahydro-1H-imidazo[1,5-a]pyrazin-7-yl]-N-[2-(dimethylamino)ethyl]-6-(2-ethoxypyridin-3-yl)pyridine-2-carboxamide] | 100% |  |
| CCOc1ncccc1-c1ccc(N2CCN3C(=O)N(c4ccc(Cl)cc4C(F)(F)F)C[C@H]3C2)c(C=O)n1 [Example 7, 3-[(8aR)-2-[4-chloro-2-(trifluoromethyl)phenyl]-3-oxo-5,6,8,8a-tetrahydro-1H-imidazo[1,5-a]pyrazin-7-yl]-6-(2-ethoxypyridin-3-yl)pyridine-2-carbaldehyde] | 91% |  |
